Earlier results as cited in patent publication US11446320B1, “Pharmaceutical combination having potent antiviral activity against single-stranded RNA viruses” (priority 2021, dated 2022).

Legend:
[1] = test system: bunyaviruses
[2] = test system: arenaviruses
[3] = test system: influenza viruses
[4] = test system: filoviruses
[5] = test system: SARS-CoV-2; conditions: mammalian cells, in vitro
[6] = test system: yellow fever virus
[7] = test system: dengue virus

Compound: NC(=O)c1nc(F)c[nH]c1=O [Favipiravir]
- effectiveness against bunyaviruses [1]: effective
- effectiveness against arenaviruses [2]: effective
- effectiveness against influenza viruses [3]: effective
- effectiveness against filoviruses [4]: effective

Compound: NC(=O)c1nc(F)cn([C@@H]2O[C@H](COP(=O)(O)OP(=O)(O)OP(=O)(O)O)[C@@H](O)[C@H]2O)c1=O [favipiravir-RTP]
- effectiveness against bunyaviruses [1]: effective
- effectiveness against arenaviruses [2]: effective
- effectiveness against influenza viruses [3]: effective
- effectiveness against filoviruses [4]: effective

Compound: ivermectin
- replication of SARS-CoV-2 [5]: slow replication
- inhibition of yellow fever virus [6]: inhibit
- inhibition of dengue virus [7]: inhibit
